Tested on: patients ≥2 and <25 years with brain cancer
Assay: Phase I/II trial of single agent mirdametinib in children, adolescents and young adults with brain cancer
Format: in vivo, human
Description: Example 1: Phase I/II Evaluation of Single Agent Mirdametinib, a Brain-Penetrant MEK1/2 Inhibitor, for the Treatment of Children, Adolescents, and Young Adults with Brain Cancer A multi-arm […] trial of mirdametinib is to be conducted in patients ≥2 and <25 years with brain cancer. Phase I requires participants have no prior exposure to MEK inhibitors and recurrent/progressive disease with biopsy-proven evidence of MAPK pathway activation. Three escalating dose levels (2 mg/m^2/dose BID, 2.5 mg/m^2/dose BID and 3 mg/m^2/dose BID) are planned using a rolling 6 design. The median age enrolled in the study is 10 years old (3-21).

O=C(NOC[C@H](O)CO)c1ccc(F)c(F)c1Nc1ccc(I)cc1F (single isomer, unassigned) [mirdametinib]
MEK related retinopathy or cardiopathy (2, 2.5 and 3 mg/m^2/dose BID, patients with brain cancer): No MEK related retinopathy or cardiopathy is observed | disease progressions (2, 2.5 and 3 mg/m^2/dose BID, patients with recurrent/progressive brain cancer with MAPK pathway activation): No disease progressions | dose-limiting toxicities (all three dose levels (2, 2.5 and 3 mg/m^2/dose BID), patients with brain cancer, no prior MEK inhibitor): No dose-limiting toxicities | clinical activity (overall statement) (dosed continuously in patients with brain cancer): clinically promising
